In article PMC6009933, “Discovery of novel dual inhibitors of receptor tyrosine kinases EGFR and IGF-1R” (Journal of Enzyme Inhibition and Medicinal Chemistry, 2017):

Tests used:
[1] = target: T1, EGFR (Homo sapiens, UniProt P00533); assay: Receptor tyrosine kinase inhibition, 33P-ATP FlashPlate assay (EGFR); format: biochemical; conditions: recombinant GST fusion kinase, substrate Poly(Glu,Tyr)4:1, Ki from IC50, Km ATP 1.3 µM
T1 construct: GST; made in house; host or cells: Sf9 insect cells (baculovirus)
T1 sequence (P00533 25-1210): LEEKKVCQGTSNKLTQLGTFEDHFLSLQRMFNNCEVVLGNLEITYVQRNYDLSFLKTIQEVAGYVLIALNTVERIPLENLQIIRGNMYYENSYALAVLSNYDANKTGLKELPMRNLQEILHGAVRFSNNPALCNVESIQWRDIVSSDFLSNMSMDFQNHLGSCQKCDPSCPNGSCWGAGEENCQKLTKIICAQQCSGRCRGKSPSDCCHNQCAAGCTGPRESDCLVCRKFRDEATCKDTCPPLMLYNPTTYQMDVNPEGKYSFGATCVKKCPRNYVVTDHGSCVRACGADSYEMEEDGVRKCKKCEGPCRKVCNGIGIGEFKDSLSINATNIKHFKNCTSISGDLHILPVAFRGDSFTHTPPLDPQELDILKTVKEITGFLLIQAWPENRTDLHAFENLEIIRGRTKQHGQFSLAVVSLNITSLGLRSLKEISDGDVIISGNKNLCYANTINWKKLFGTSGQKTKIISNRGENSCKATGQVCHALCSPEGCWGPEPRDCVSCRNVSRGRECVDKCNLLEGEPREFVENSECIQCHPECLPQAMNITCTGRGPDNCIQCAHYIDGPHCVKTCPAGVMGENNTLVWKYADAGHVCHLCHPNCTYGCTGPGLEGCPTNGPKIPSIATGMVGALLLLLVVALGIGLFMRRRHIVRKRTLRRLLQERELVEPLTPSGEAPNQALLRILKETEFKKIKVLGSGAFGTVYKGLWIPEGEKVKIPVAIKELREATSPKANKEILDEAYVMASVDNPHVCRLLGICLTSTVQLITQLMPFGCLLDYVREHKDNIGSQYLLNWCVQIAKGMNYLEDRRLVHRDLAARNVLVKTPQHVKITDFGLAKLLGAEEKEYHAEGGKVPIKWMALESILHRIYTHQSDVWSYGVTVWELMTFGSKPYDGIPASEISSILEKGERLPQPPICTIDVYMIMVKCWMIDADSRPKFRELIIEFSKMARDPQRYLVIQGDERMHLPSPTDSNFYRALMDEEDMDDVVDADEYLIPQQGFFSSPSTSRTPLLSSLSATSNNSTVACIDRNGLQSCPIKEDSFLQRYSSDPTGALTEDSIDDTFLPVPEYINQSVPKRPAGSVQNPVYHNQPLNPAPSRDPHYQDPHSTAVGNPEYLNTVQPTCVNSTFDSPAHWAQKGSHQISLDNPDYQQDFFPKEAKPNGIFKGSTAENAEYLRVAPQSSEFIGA
Method: (§1) The protein kinases were expressed by means of the baculovirus expression system in Sf9 insect cells as human recombinant GST fusion proteins and purified by affinity chromatography using GSH-agarose. The kinase identity was confirmed by mass spectrometry using LC-ESI-MS/MS technique.
(§2) The measuring of protein kinase activity was performed in 96-well FlashPlates^TM from Perkin Elmer in a 50 µL reaction volume. The reaction mixture consisted of 20 µL of assay buffer solution, 5 µL of ATP solution in water, 5 µL of used test compound in a 10% DMSO solution and finally a premixture of each 10 µL of used substrate and enzyme solutions. The assay buffer solution contained 70 mM of HEPES-NAOH pH 7.5, each 3 mM of magnesium chloride and manganese(II) chloride, 3 µM of sodium orthovanadate, 1.2 mM of DTT, 50 µg/mL of PEG20000 and finally 15 µM of [γ-^33P]-ATP making approximately 7 × 10^5 cpm per well.
(§3) The final kinase concentration has been 10 ng/50 µL for EGFR and IGF-1R. The used substrate was Poly(Glu,Tyr)4:1 in a concentration of 125 ng/50 µL.
(§4) The reaction mixtures were incubated at 30 °C for 60 min. The reaction was stopped with 50 µL of a 2% (v/v) solution of phosphoric acid. Then, the plates were aspirated and washed twice with 200 µL of water or 0.9% solution of sodium chloride. The incorporation of ^33Pi was determined with a microplate scintillation counter. Ten different inhibitor concentrations were measured in a range of 3 nM to 100 µM. The residual activity (%) and the IC50 values were finally calculated. From the IC50 values, the affinity constants Ki were determined using the equation: IC50 = 1/2 [Etotal] + Ki× (1 + [S]/Km) following a competitive inhibitor binding mode[18]. The used Km values for ATP have been measured with 1.3 µM for EGFR and with 2.52 µM for IGF-1R (Table 1).

[2] = target: T2, IGF-1R (Homo sapiens, UniProt P08069); assay: Receptor tyrosine kinase inhibition, 33P-ATP FlashPlate assay (IGF-1R); format: biochemical; conditions: for Ki: recombinant GST fusion kinase, substrate Poly(Glu,Tyr)4:1, Ki from IC50, Km ATP 2.52 µM
T2 construct: GST; made in house; host or cells: Sf9 insect cells (baculovirus)
T2 sequence (P08069 31-1367): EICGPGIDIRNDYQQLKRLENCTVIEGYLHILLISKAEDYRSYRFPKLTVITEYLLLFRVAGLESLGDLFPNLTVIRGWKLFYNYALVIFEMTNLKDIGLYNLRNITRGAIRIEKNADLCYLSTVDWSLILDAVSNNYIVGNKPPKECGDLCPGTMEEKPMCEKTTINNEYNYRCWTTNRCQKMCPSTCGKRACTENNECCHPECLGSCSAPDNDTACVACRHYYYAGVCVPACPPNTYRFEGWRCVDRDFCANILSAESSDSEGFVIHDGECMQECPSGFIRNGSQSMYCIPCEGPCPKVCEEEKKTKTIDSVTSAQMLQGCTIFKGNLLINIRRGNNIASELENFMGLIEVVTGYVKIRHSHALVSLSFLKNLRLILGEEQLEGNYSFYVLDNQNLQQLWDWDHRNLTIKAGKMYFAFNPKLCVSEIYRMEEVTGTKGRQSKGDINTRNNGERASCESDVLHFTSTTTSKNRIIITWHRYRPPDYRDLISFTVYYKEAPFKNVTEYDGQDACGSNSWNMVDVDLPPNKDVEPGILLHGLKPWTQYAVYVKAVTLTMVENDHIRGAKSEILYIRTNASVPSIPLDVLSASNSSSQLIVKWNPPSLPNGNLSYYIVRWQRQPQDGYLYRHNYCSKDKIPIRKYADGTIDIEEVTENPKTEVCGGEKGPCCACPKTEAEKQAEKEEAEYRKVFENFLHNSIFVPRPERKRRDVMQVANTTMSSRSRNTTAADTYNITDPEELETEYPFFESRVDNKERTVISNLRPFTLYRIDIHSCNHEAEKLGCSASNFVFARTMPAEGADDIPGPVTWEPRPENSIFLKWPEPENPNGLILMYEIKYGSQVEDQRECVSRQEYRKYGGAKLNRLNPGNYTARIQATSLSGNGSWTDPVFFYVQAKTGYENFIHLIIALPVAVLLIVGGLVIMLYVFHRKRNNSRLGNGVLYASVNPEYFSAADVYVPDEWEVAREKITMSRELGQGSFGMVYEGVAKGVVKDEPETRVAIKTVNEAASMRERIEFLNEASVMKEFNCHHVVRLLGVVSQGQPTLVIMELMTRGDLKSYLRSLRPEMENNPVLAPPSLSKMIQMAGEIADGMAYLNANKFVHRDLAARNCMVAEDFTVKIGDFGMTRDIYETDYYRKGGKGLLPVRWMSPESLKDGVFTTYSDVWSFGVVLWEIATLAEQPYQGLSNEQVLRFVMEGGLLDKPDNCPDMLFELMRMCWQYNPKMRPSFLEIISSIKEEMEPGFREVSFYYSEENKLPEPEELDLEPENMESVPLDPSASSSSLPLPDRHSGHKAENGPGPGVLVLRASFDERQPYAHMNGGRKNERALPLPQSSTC
Method: as §1, §2, §3, §4

[3] = test system: IGF-1R; design: method as in PMID 23639757; conditions: cited from earlier work

COc1cccc(CNc2ccnc3[nH]c4ccc(Br)cc4c23)c1 [Compound 5a, N^4–(3-Methoxybenzyl)-6-bromo-9H-pyrido[2,3-b]indole-4-amine]
Ki [1]: 0.344 ± 0.024 µM
Ki [2]: 9.84 ± 0.238 µM

Clc1cccc(CNc2ccnc3[nH]c4ccc(Br)cc4c23)c1 [Compound 5b, N^4–(3-Chlorobenzyl)-6-bromo-9H-pyrido[2,3-b]indole-4-amine]
Ki [1]: 0.361 ± 0.035 µM
Ki [2]: 3.47 ± 0.071 µM

Brc1cccc(CNc2ccnc3[nH]c4ccc(Br)cc4c23)c1 [Compound 5c, N^4–(3-Bromobenzyl)-6-bromo-9H-pyrido[2,3-b]indole-4-amine]
Ki [1]: 0.255 ± 0.018 µM
Ki [2]: 2.96 ± 0.037 µM

Nc1cccc(CNc2ccnc3[nH]c4ccc(Br)cc4c23)c1 [Compound 5d, N^4–(3-Aminobenzyl)-6-bromo-9H-pyrido[2,3-b]indole-4-amine]
Ki [1]: 0.101 ± 0.011 µM
Ki [2]: 0.537 ± 0.022 µM

COc1ccc(CNc2ccnc3[nH]c4ccc(Br)cc4c23)cc1 [Compound 5e, N^4–(4-Methoxybenzyl)-6-bromo-9H-pyrido[2,3-b]indole-4-amine]
Ki [1]: 1.17 ± 0.057 µM
Ki [2]: 2.23 ± 0.022 µM

Clc1ccc(CNc2ccnc3[nH]c4ccc(Br)cc4c23)cc1 [Compound 5f, N^4–(4-Chlorobenzyl)-6-bromo-9H-pyrido[2,3-b]indole-4-amine]
Ki values EGFR [1]: lost
Ki [2]: 2.29 ± 0.043 µM

Brc1ccc(CNc2ccnc3[nH]c4ccc(Br)cc4c23)cc1 [Compound 5g, N^4–(4-Bromobenzyl)-6-bromo-9H-pyrido[2,3-b]indole-4-amine]
Ki [1]: 0.448 ± 0.072 µM
Ki [2]: 0.884 ± 0.025 µM

Cc1ccc(CNc2ccnc3[nH]c4ccc(Br)cc4c23)cc1 [Compound 5h, N^4–(4-Methylbenzyl)-6-bromo-9H-pyrido[2,3-b]indole-4-amine]
Ki [1]: 0.279 ± 0.091 µM
Ki [2]: 0.697 ± 0.015 µM

COc1cccc(CNc2ccnc3[nH]c4ccc(C#N)cc4c23)c1 [Compound 6a, 4–(3-Methoxybenzyl)amino-9H-pyrido[2,3-b]indole-6-carbonitrile]
Ki [1]: 0.072 ± 0.017 µM
affinity towards IGF-1R relative to corresponding 6-bromo compound 5a ([2]; fold comparison of Ki with 5a): more than thirtyfold higher
Ki [2]: 0.288 ± 0.026 µM

COc1ccc(CNc2ccnc3[nH]c4ccc(C#N)cc4c23)cc1 [Compound 6b, 4–(4-Methoxybenzyl)amino-9H-pyrido[2,3-b]indole-6-carbonitrile]
Ki [1]: 0.158 ± 0.026 µM
Ki [2]: 0.269 ± 0.022 µM

Cc1ccc(CNc2ccnc3[nH]c4ccc(C#N)cc4c23)cc1 [Compound 6c, 4–(4-Methylbenzyl)amino-9H-pyrido[2,3-b]indole-6-carbonitrile]
Ki [1]: 0.16 ± 0.015 µM
Ki [2]: 0.39 ± 0.016 µM

COc1cccc(CNc2ccnc3[nH]c4ccc(C(=O)O)cc4c23)c1 [Compound 7]
Ki [1]: 0.14 ± 0.028 µM
affinity towards IGF-1R relative to corresponding 6-cyano compound 6a ([2]; fold comparison of Ki with 6a): almost tenfold lower
Ki [2]: 2.36 ± 0.132 µM

C#Cc1cccc(Nc2ncnc3cc(OCCOC)c(OCCOC)cc23)c1 [erlotinib]
activity toward IGF-1R (erlotinib) [3]: no activity
